Measured values taken from patent publication US10342881B2, “Manganese-oxo clusters as contrast agents for magnetic resonance imaging” (Georgetown University, priority 2008, dated 2019).

Tests used:
[1] = tissues outside of liver and kidney; cited from earlier work
[2] = NMR relaxivity from slope of 1/T1 or 1/T2 versus concentration; type: physicochemical; details: for r1 / r2: D2O and dilute acetic acid, 500 MHz
Procedure: Fresh samples for NMR measurements were prepared immediately prior to use. Both the cluster and cluster coated beads were dissolved in distilled water, and filtered via syringe filter. T1 measurements were measured using the inversion recovery pulse sequence, in a field of 300 MHz or 500 MHz, at room temperature with a least squares fit to 10 data points. The T2 was obtained using a conventional spin echo sequence on a 300 MHz spectrometer and using Carr-Purcell-Meiboom-Gill (CPMG) sequence on 500 MHz Bruker spectrometer. Relaxivity was determined from the slope of a plot of 1/T1 or 1/T2 versus concentration of Mn-12 and Mn-12 coated beads. The cluster concentration was determined by atomic absorption of Mn.

[3] = Solubility and stability of Mn-12 in water and aqueous acetic acid; type: physicochemical
Description: Based on simple criteria, Mn-12 appears ideal as a contrast agent.

[4] = RT, per mM cluster, listed as Mn-12

| Compound | effect on T1 and T2 in tissues [1] | temperature dependence of relaxivity ([2]; 37° C. versus room temperature) | r1 ([2]; 37° C.) | r2 ([2]; 37° C.) | r1 ([2]; RT, per mM cluster) | r2 ([2]; RT, per mM cluster) | r1 [2, 4] | r2 [2, 4] | field dependence of relaxivity ([2]; measurements at 300, 400, and 500 MHz) | stability in presence of excess carboxylic acid ([3]; aqueous acetic acid solutions, re-isolated after many hours) | behaviour upon dissolution in distilled water ([3]; distilled water) |
| --- | --- | --- | --- | --- | --- | --- | --- | --- | --- | --- | --- |
| Cc1[nH+]cc(COP(=O)([O-])[O-])c(CN(CCN(CC(=O)[O-])Cc2c(COP(=O)([O-])O)c[nH+]c(C)c2O)CC(=O)[O-])c1O.[Mn].[Na+].[Na+].[Na+] [Mn-DPDP, manganese dipyrodoxaldiphosphate] | only limited effect on T1 and T2 |  |  |  |  |  |  |  |  |  |  |
| [Mn12O12(O2CCH3)16 (H2O)4] [Mn12O12Ac16] |  | decreased at higher temperatures | 2.7 ± 0.1 mM⁻¹ s⁻¹ | 34 ± 1 mM⁻¹ s⁻¹ | 3.0 ± 0.1 mM⁻¹ s⁻¹ | 48 ± 1 mM⁻¹ s⁻¹ | 3.0 ± 0.1 mM⁻¹ s⁻¹ | 48 ± 1 mM⁻¹ s⁻¹ | increase with higher fields | stable in aqueous acetic acid solutions | within minutes a flocculent material forms |
